# Measurements: BindingDB's records for patent US10071110 (University of California, 2018)
# Target: T1, Capsid scaffolding protein (Human cytomegalovirus (strain AD169), UniProt P16753)
# T1 sequence (P16753 whole entry): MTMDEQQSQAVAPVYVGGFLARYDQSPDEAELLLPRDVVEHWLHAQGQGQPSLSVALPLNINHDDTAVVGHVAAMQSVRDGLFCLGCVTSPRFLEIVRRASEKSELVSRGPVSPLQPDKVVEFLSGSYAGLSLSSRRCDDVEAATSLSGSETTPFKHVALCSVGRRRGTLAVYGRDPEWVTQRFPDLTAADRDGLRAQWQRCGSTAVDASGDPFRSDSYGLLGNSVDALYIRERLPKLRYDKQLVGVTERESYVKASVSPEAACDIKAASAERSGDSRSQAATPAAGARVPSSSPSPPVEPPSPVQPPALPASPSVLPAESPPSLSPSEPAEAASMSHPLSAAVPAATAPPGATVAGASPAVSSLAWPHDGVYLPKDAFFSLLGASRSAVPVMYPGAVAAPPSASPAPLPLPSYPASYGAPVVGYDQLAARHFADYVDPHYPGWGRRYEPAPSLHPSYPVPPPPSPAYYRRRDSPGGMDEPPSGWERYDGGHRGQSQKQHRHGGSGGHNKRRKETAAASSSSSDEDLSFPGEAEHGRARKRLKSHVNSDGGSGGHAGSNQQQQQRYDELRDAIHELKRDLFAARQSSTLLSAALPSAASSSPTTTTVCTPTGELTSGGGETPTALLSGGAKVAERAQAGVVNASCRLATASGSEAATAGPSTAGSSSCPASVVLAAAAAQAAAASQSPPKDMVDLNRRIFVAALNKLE
# Assay: HCMV antiviral assay
# Method: Methods 21:293-298, 1990. […] After absorption of the lysate, the Hybriwix filters were hybridized overnight at 60° C.
structure (smiles),measurement,value
"Nc1ncnc2c1ncn2CCOCP(=O)(O)O [US10071110, Compound Adefovir]",EC50,55 µM
